pIC50: −log10 of the molar value.

For the experiment, the target named is Cathepsin S (Homo sapiens, UniProt P25774). Put plainly: D3R2024.
Chain of Cathepsin S (P25774 whole entry): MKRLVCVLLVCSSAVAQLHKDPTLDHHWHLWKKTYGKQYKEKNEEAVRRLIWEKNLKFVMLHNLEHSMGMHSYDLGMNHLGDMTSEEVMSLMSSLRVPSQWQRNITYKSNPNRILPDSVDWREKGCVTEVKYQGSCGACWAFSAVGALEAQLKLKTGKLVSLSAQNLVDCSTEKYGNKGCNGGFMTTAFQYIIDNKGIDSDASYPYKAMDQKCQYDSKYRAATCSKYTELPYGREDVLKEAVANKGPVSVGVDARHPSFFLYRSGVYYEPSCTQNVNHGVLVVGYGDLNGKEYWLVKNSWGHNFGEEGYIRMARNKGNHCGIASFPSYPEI
From the text: D3R2024
One may read the pIC50 as the IC50 on a negative log10 scale, so that one unit is a factor of ten. A lower pIC50 goes with a high IC50. For the compound `COC(=O)c1cccc(NC(=O)NC2CCN(c3ccnc(Nc4cc(OC)c(OC)c(OC)c4)n3)C2)c1` (configuration not stated) [D3RKN_99], the pIC50 is 6.47.

As for `N#Cc1cccc(C(=O)NC2CCN(c3ccnc(Nc4ccc(F)cc4)n3)C2)c1` (configuration not stated) [D3RKN_100], the pIC50 is 5.24.

`COc1cc(Nc2nccc(N3CCC(NC(=O)Nc4cc(C)ccc4C)C3)n2)cc(OC)c1OC` (configuration not stated) [D3RKN_101] had a pIC50 of 5.00. The figure for `CCCc1ccc(S(=O)(=O)NC2CCN(c3ccnc(Nc4ccc(OC)cc4)n3)C2)cc1` (configuration not stated) [D3RKN_102] is 6.17; for `COc1ccc(Nc2nccc(N3CCC(NS(=O)(=O)c4ccc(NC(C)=O)cc4)C3)n2)cc1` (configuration not stated) [D3RKN_103] it is 7.28.

Turning to `COc1cc(Nc2nccc(N3CCC(NC(=O)c4cc5ccccc5s4)C3)n2)cc(OC)c1OC` (configuration not stated) [D3RKN_104], the pIC50 was 6.15.

In turn, `COc1cc(Nc2nccc(N3CCC(NC(=O)c4cccc(C#N)c4)C3)n2)cc(OC)c1OC` (configuration not stated) [D3RKN_105] gave a pIC50 of 6.74. In turn, `COC(=O)C(NC(=O)NC1CCN(c2ccnc(Nc3ccc(F)cc3)n2)C1)c1ccccc1` (configuration not stated) [D3RKN_106] had a pIC50 of 5.11. Consider `Cc1ccc(C)c(NC(=O)NC2CCN(c3ccnc(Nc4ccc(F)cc4)n3)C2)c1` (configuration not stated) [D3RKN_108], for which the pIC50 was 5.00. `COC(=O)C(Cc1ccccc1)NC(=O)NC1CCN(c2ccnc(Nc3ccc(F)cc3)n2)C1` (configuration not stated) [D3RKN_109] showed a pIC50 of 5.72.

As for `O=C(NC1CCN(c2ccnc(Nc3ccc(F)cc3)n2)C1)c1cc2ccccc2s1` (configuration not stated) [D3RKN_110], the pIC50 is 5.00. The figure for `COc1ccc(Nc2nccc(N3CCC(NC(=O)c4cccc(NC(C)=O)c4)C3)n2)cc1` (configuration not stated) [D3RKN_111] is 5.62; for `COc1ccc(Nc2nccc(N3CCC(NC(=O)c4cccc(C#N)c4)C3)n2)cc1` (configuration not stated) [D3RKN_112] it is 5.33. On to `COC(=O)c1cccc(NC(=O)NC2CCN(c3ccnc(Nc4ccc(OC)cc4)n3)C2)c1` (configuration not stated) [D3RKN_113], for which the pIC50 was 5.00. In the case of `COc1cc(Nc2nccc(N3CCC(NC(=O)c4cccc(NC(C)=O)c4)C3)n2)cc(OC)c1OC` (configuration not stated) [D3RKN_114], the pIC50 was 7.27. With `COc1ccc(Nc2nccc(N3CCC(NC(=O)Nc4cc(C)ccc4C)C3)n2)cc1` (configuration not stated) [D3RKN_115], the pIC50 was 5.00. The figure for `COC(=O)c1cccc(NC(=O)NC2CCN(c3ccnc(Nc4ccc(F)cc4)n3)C2)c1` (configuration not stated) [TCMDC-133606] is 5.00.

The values above are taken from BindingDB's records for doi:10.7270/Q2183BCW (D3R/Abbott, 2020).
